Laboratory results as given in ChEMBL document CHEMBL1134717 (Bioorg Med Chem Lett, 2001).

Key:
[1] = target: Mu-type opioid receptor (Cavia porcellus, UniProt P97266); test: Binding affinity towards Opioid receptor mu 1 of guinea pig brain membranes using radioligand 0.25 nM [3H]DAMGO
[2] = target: Kappa-type opioid receptor (Cavia porcellus, UniProt P41144); test: Binding affinity towards guinea pig Opioid receptor kappa 1 using radioligand [3H]U-69593
Chain of Kappa-type opioid receptor (P41144 whole entry): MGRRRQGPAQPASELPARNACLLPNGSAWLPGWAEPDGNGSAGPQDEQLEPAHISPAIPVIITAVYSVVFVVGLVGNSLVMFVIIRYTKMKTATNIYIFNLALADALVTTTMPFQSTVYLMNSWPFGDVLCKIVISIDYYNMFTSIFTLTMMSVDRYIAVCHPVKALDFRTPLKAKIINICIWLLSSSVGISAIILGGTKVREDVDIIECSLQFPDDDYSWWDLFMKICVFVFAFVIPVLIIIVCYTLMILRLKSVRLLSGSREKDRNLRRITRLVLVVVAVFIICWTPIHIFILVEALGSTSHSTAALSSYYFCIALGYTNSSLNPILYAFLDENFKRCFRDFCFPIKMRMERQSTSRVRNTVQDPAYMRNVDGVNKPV

Chain of Mu-type opioid receptor (P97266 whole entry): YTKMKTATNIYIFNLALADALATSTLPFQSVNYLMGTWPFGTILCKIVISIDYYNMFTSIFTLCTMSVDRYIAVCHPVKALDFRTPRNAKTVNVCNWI

Row | Compound | Ki [1] [nM] | Ki [2] [nM]
1 | CN1CC[C@]23c4c5ccc(C(N)=O)c4OC2C(O)C=C[C@H]3[C@H]1C5 (stereo partly drawn) | 34 | 2000
2 | CNC(=O)c1ccc2c3c1OC1C(O)C=C[C@H]4[C@@H](C2)N(C)CC[C@]314 (stereo partly drawn) | 440 | > 10000
3 | CN(C)C(=O)c1ccc2c3c1OC1C(O)C=C[C@H]4[C@@H](C2)N(C)CC[C@]314 (stereo partly drawn) | – | > 10000
4 | NC(=O)c1ccc2c3c1O[C@H]1C(=O)CC[C@@]4(O)[C@@H](C2)N(CC2CC2)CC[C@]314 | 1.9 | 22
5 | C[C@H]1[C@H]2Cc3ccc(O)cc3[C@]1(C)CCN2CC1CC1 [CYCLAZOCINE] | – | 0.18
